Data taken from PubChem BioAssay (NCI).
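Protocol summary: plate cells (96-well), add compound at 5 concentrations, incubate 48 h, interpolate endpoints linearly. TGI is the concentration that stops growth completely.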

Columns and labels:
Test in all cases: NCI-60 cell line screen, 48 h
OVCAR-4 ovarian = system: OVCAR-4 ovarian
SK-OV-3 ovarian = system: SK-OV-3 ovarian
SNB-75 CNS = system: SNB-75 CNS
BT-549 breast = system: BT-549 breast
RPMI-8226 leukemia = system: RPMI-8226 leukemia
MCF7 breast = system: MCF7 breast
HT29 colon = system: HT29 colon
SF-539 CNS = system: SF-539 CNS
OVCAR-5 ovarian = system: OVCAR-5 ovarian
ACHN renal = system: ACHN renal

In the case of `Cn1cnc([N+](=O)[O-])c1Sc1nncc2[nH]cnc12`, the TGI (OVCAR-4 ovarian) is reported as greater than 100 µM, the TGI (SK-OV-3 ovarian) is reported as greater than 100 µM and the TGI (SNB-75 CNS) is reported as greater than 100 µM. It also gave a TGI (BT-549 breast) greater than 100 µM, a TGI (RPMI-8226 leukemia) greater than 100 µM and a TGI (MCF7 breast) greater than 100 µM. The TGI (HT29 colon) was greater than 100 µM, the TGI (SF-539 CNS) was greater than 100 µM and the TGI (OVCAR-5 ovarian) was greater than 100 µM. The TGI (ACHN renal) was greater than 100 µM.
For `CN(C)CCCN1C(=O)N(CCCN(C)C)c2c3cc(O)ccc3nc3c([N+](=O)[O-])ccc1c23`, the TGI (OVCAR-4 ovarian) was 17.8 µM, the TGI (SK-OV-3 ovarian) was greater than 100 µM and the TGI (SNB-75 CNS) was greater than 100 µM. It also gave a TGI (BT-549 breast) of 33.7 µM, a TGI (RPMI-8226 leukemia) of 63.3 µM and a TGI (MCF7 breast) of 40.4 µM. It also gave a TGI (HT29 colon) of 27.2 µM, a TGI (SF-539 CNS) of 35.5 µM and a TGI (OVCAR-5 ovarian) greater than 100 µM. It also gave a TGI (ACHN renal) of 62.6 µM.
`CN(NC(=O)/C(=C/C=C/c1ccccc1)NC(=O)c1ccccc1)C1=C(Cl)C(=O)[N+](c2ccccc2)=CC1` showed a TGI (OVCAR-4 ovarian) of 64 µM, a TGI (SK-OV-3 ovarian) greater than 100 µM and a TGI (SNB-75 CNS) of 69.6 µM. The TGI (BT-549 breast) was 49.6 µM, the TGI (RPMI-8226 leukemia) was 63.2 µM and the TGI (MCF7 breast) was 36.3 µM. For the same compound, the TGI (HT29 colon) was greater than 100 µM, the TGI (SF-539 CNS) was 38 µM and the TGI (OVCAR-5 ovarian) was greater than 100 µM. For the same compound, the TGI (ACHN renal) was 81 µM.
`C[C@@H](CC(O)C(O)C(C)(C)O)C1CCC23CC12CCC1[C@@]2(C)CCC(=O)C(C)(C)C2CC(OC2OC(CO)C(O)C(O)C2O)[C@]13C` (stereo not given in full) gave a TGI (OVCAR-4 ovarian) greater than 10 µM, a TGI (SK-OV-3 ovarian) greater than 10 µM and a TGI (SNB-75 CNS) greater than 10 µM. It also gave a TGI (BT-549 breast) greater than 10 µM, a TGI (RPMI-8226 leukemia) greater than 10 µM and a TGI (MCF7 breast) greater than 10 µM. The TGI (HT29 colon) was greater than 10 µM, the TGI (SF-539 CNS) was greater than 10 µM and the TGI (OVCAR-5 ovarian) was greater than 10 µM. For the same compound, the TGI (ACHN renal) was greater than 10 µM.
With `Cc1nc(-c2ccc(Cl)cc2)cn2c1nc1ccccc12` the TGI (OVCAR-4 ovarian) was greater than 100 µM, the TGI (SK-OV-3 ovarian) was greater than 100 µM and the TGI (SNB-75 CNS) was greater than 100 µM. It also gave a TGI (BT-549 breast) greater than 100 µM, a TGI (RPMI-8226 leukemia) greater than 100 µM and a TGI (MCF7 breast) greater than 100 µM. For the same compound, the TGI (HT29 colon) was greater than 100 µM, the TGI (SF-539 CNS) was greater than 100 µM and the TGI (OVCAR-5 ovarian) was greater than 100 µM. The TGI (ACHN renal) was greater than 100 µM.
For `O=C(n1c(=O)n(-c2ccc([N+](=O)[O-])cc2)c(=O)n1C(=O)C(Cl)(Cl)Cl)C(Cl)(Cl)Cl`, the TGI (OVCAR-4 ovarian) was greater than 100 µM, the TGI (SK-OV-3 ovarian) was greater than 100 µM and the TGI (SNB-75 CNS) was greater than 100 µM. The TGI (BT-549 breast) was greater than 100 µM, the TGI (RPMI-8226 leukemia) was greater than 100 µM and the TGI (MCF7 breast) was greater than 100 µM. For the same compound, the TGI (HT29 colon) was greater than 100 µM, the TGI (SF-539 CNS) was greater than 100 µM and the TGI (OVCAR-5 ovarian) was greater than 100 µM. For the same compound, the TGI (ACHN renal) was greater than 100 µM.
For `CC1=C(C(=O)OC(C)C)C(c2cccc([N+](=O)[O-])c2)C(C(=O)OC(CO[N+](=O)[O-])CO[N+](=O)[O-])=C(C)N1` (stereo not given), the TGI (OVCAR-4 ovarian) was 20.9 µM, the TGI (SK-OV-3 ovarian) was greater than 100 µM and the TGI (SNB-75 CNS) was 43.3 µM. It also gave a TGI (BT-549 breast) of 14.7 µM, a TGI (RPMI-8226 leukemia) of 3.6 µM and a TGI (MCF7 breast) of 1.12 µM. It also gave a TGI (HT29 colon) of 21 µM, a TGI (SF-539 CNS) of 16.3 µM and a TGI (OVCAR-5 ovarian) of 21.5 µM. The TGI (ACHN renal) was greater than 100 µM.
Compound `C=C1C(=O)O[C@H]2[C@@H](O)[C@H](C)CCC/C(C)=C/CC[C@@]3(C)O[C@@H]3C[C@@H]12` has a TGI (OVCAR-4 ovarian) of 19.8 µM, a TGI (SK-OV-3 ovarian) of 34.2 µM and a TGI (SNB-75 CNS) of 29.6 µM. For the same compound, the TGI (BT-549 breast) was 14.5 µM, the TGI (RPMI-8226 leukemia) was 25.7 µM and the TGI (MCF7 breast) was 36.4 µM. For the same compound, the TGI (HT29 colon) was 28.7 µM, the TGI (SF-539 CNS) was 11.8 µM and the TGI (OVCAR-5 ovarian) was 34.8 µM. The TGI (ACHN renal) was 6.16 µM.
For `O=C(NC(Cc1c[nH]c2ccccc12)C(=O)O)/C(=C/c1ccccc1)NC(=O)c1ccccc1` (stereo not given), the TGI (OVCAR-4 ovarian) was greater than 100 µM, the TGI (SK-OV-3 ovarian) was greater than 100 µM and the TGI (SNB-75 CNS) was greater than 100 µM. The TGI (BT-549 breast) was greater than 100 µM, the TGI (RPMI-8226 leukemia) was greater than 100 µM and the TGI (MCF7 breast) was greater than 100 µM. For the same compound, the TGI (HT29 colon) was greater than 100 µM, the TGI (SF-539 CNS) was greater than 100 µM and the TGI (OVCAR-5 ovarian) was greater than 100 µM. The TGI (ACHN renal) was greater than 100 µM.
For `CCOC(=O)c1c(C)n(CCN2CCN(C)CC2)c2ccc(OC)cc12`, the TGI (OVCAR-4 ovarian) was greater than 100 µM, the TGI (SK-OV-3 ovarian) was greater than 100 µM and the TGI (SNB-75 CNS) was greater than 100 µM. For the same compound, the TGI (BT-549 breast) was greater than 100 µM, the TGI (RPMI-8226 leukemia) was 49.6 µM and the TGI (MCF7 breast) was greater than 100 µM. The TGI (HT29 colon) was 71.2 µM, the TGI (SF-539 CNS) was 87.1 µM and the TGI (OVCAR-5 ovarian) was greater than 100 µM. The TGI (ACHN renal) was greater than 100 µM.
`CC(CN(C)C)C(O)(c1ccccc1)c1ccccc1` (stereo not given) was tested, and the TGI (OVCAR-4 ovarian) was greater than 100 µM, the TGI (SK-OV-3 ovarian) was greater than 100 µM and the TGI (SNB-75 CNS) was greater than 100 µM. It also gave a TGI (BT-549 breast) greater than 100 µM, a TGI (RPMI-8226 leukemia) greater than 100 µM and a TGI (MCF7 breast) greater than 100 µM. It also gave a TGI (HT29 colon) greater than 100 µM, a TGI (SF-539 CNS) greater than 100 µM and a TGI (OVCAR-5 ovarian) greater than 100 µM. The TGI (ACHN renal) was greater than 100 µM.
In the case of `Cc1cccc(-c2cc(=O)c3c(C)ccnc3[nH]2)c1`, the TGI (OVCAR-4 ovarian) is reported as greater than 100 µM, the TGI (SK-OV-3 ovarian) is reported as greater than 100 µM and the TGI (SNB-75 CNS) is reported as greater than 100 µM. The TGI (BT-549 breast) was greater than 100 µM, the TGI (RPMI-8226 leukemia) was 26.1 µM and the TGI (MCF7 breast) was greater than 42.2 µM. It also gave a TGI (HT29 colon) greater than 100 µM, a TGI (SF-539 CNS) greater than 100 µM and a TGI (OVCAR-5 ovarian) greater than 100 µM. The TGI (ACHN renal) was greater than 100 µM.
In the case of `C=C(Cl)C(=C)CCC(Cl)C(C)(C)Cl` (stereo not given), the TGI (OVCAR-4 ovarian) is reported as greater than 100 µM, the TGI (SK-OV-3 ovarian) is reported as greater than 100 µM and the TGI (SNB-75 CNS) is reported as greater than 100 µM. The TGI (BT-549 breast) was greater than 100 µM, the TGI (RPMI-8226 leukemia) was greater than 100 µM and the TGI (MCF7 breast) was greater than 100 µM. For the same compound, the TGI (HT29 colon) was greater than 100 µM, the TGI (SF-539 CNS) was greater than 100 µM and the TGI (OVCAR-5 ovarian) was greater than 100 µM. The TGI (ACHN renal) was greater than 100 µM.
In the case of `Cc1cccc(/C=N/NC(=S)NC(C)(C)C)n1`, the TGI (OVCAR-4 ovarian) is reported as greater than 100 µM, the TGI (SK-OV-3 ovarian) is reported as greater than 100 µM and the TGI (SNB-75 CNS) is reported as greater than 100 µM. The TGI (BT-549 breast) was greater than 100 µM, the TGI (RPMI-8226 leukemia) was greater than 100 µM and the TGI (MCF7 breast) was greater than 100 µM. For the same compound, the TGI (HT29 colon) was greater than 100 µM, the TGI (SF-539 CNS) was greater than 100 µM and the TGI (OVCAR-5 ovarian) was greater than 100 µM. It also gave a TGI (ACHN renal) greater than 100 µM.
With `CCCNC(=O)Cn1c(-c2ccccc2)cc2ccccc21` the TGI (OVCAR-4 ovarian) was greater than 100 µM, the TGI (SK-OV-3 ovarian) was greater than 100 µM and the TGI (SNB-75 CNS) was greater than 100 µM. The TGI (BT-549 breast) was greater than 100 µM, the TGI (RPMI-8226 leukemia) was greater than 100 µM and the TGI (MCF7 breast) was greater than 100 µM. It also gave a TGI (HT29 colon) greater than 100 µM, a TGI (SF-539 CNS) greater than 100 µM and a TGI (OVCAR-5 ovarian) greater than 100 µM. For the same compound, the TGI (ACHN renal) was greater than 100 µM.
`CCSc1nn(-c2c3ccccc3nc3ccccc23)c(=S)s1` gave a TGI (OVCAR-4 ovarian) greater than 100 µM, a TGI (SK-OV-3 ovarian) greater than 100 µM and a TGI (SNB-75 CNS) greater than 100 µM. The TGI (BT-549 breast) was greater than 100 µM, the TGI (RPMI-8226 leukemia) was greater than 100 µM and the TGI (MCF7 breast) was greater than 100 µM. The TGI (HT29 colon) was greater than 100 µM, the TGI (SF-539 CNS) was greater than 100 µM and the TGI (OVCAR-5 ovarian) was greater than 100 µM. The TGI (ACHN renal) was greater than 100 µM.
